“Also recorded” adds a separate entry of the source.

These results are taken from publication PMC2001878, “Pharmacokinetic studies with zinc(II)-phthalocyanine in tumour-bearing mice” (British Journal of Cancer, 1987).

Details of data set [1]: method as in Tomio et al. (1982). Particulars: Wistar rats; ref Tomio et al. (1982); cited from earlier work.
Data set [2] is described as follows: Serum concentration time course after i.p. injection of liposomal Zn-Pc in tumour-bearing mice. The format is in vivo, BALB/c mice. Particulars: 0.5 mg kg-1 i.p. in DPPC liposomes, mice bearing MS-2 fibrosarcoma. From the text: Br. J. Cancer (1987), 56, 597~~~~~~ ~~-60?TeMcilnPssLd,18 Pharmacokinetic studies with zinc(II)-phthalocyanine in tumour-bearing mice E. Reddi, G. Lo Castro, R. Biolo & G. Jori Department of Biology via Loredan 10, University of Padova, 1-35131 Padova, Italy. Summary Zn(II)-phthalocyanine (Zn-Pc) incorporated into unilamellar liposomes of dipalmitoyl- phosphatidylcholine has been injected intraperitoneally (0.5mgkg-1) to BALB/c mice bearing a transplanted MS-2 fibrosarcoma. […] Several normal tissues take up the drug within 3 hours after administration but release it almost completely after 24-48 hours. […] The results are discussed in terms of a possible use of Zn-Pc as a photosensitizer in the photodynamic therapy of tumours. Haematoporphyrin and haematoporphyrin derivative (HpD) are presently used as sensitizers for the specific destruction of tumours by photodynamic therapy (PDT) (Moan, 1986; Spikes & Jori, 1987). Although the technique is being applied for the treatment of a variety of neoplasias at both the experimental and clinical level (Dougherty, 1984), PDT is facing some problems and/or limitations. Thus, HpD as it is prepared from Hp (Lipson et al., 1961) is a complex mixture of porphyrins, whose composition is often not reproduced in different preparations and may change as a function of various experimental parameters (Bonnett et al., 1981; Dougherty, 1983). […] Moreover, PDT is usually performed by irradiation with 620-630 nm light; unfortunately, the molar absorptivity of Hp or HpD in this wavelength range is very low (< 103 M- 1 cm- 1). […] Pharmacokinetic studies The Zn-Pc was injected- i.p. into tumour-bearing mice after incorporation of the dye into small unilamellar liposomes of DPPC following the procedure described by Valduga et al. (1987): The Zn-Pc/DPPC ratio was 1:36 on a molar basis, as assessed from the weighed amount of phospholipid and absorbance measurements at 680 nm for Zn-Pc (E= 1.68 x 105 M-1 cm- at 673 nm). […]

Data set [3] can be described thus: Recovery of Zn-Pc from tumour and normal tissues of tumour-bearing mice. The format is in vivo, BALB/c mice. From the text: Br. J. Cancer (1987), 56, 597~~~~~~ ~~-60?TeMcilnPssLd,18 Pharmacokinetic studies with zinc(II)-phthalocyanine in tumour-bearing mice E. Reddi, G. Lo Castro, R. Biolo & G. Jori Department of Biology via Loredan 10, University of Padova, 1-35131 Padova, Italy. Summary Zn(II)-phthalocyanine (Zn-Pc) incorporated into unilamellar liposomes of dipalmitoyl- phosphatidylcholine has been injected intraperitoneally (0.5mgkg-1) to BALB/c mice bearing a transplanted MS-2 fibrosarcoma. […] Several normal tissues take up the drug within 3 hours after administration but release it almost completely after 24-48 hours. […] The results are discussed in terms of a possible use of Zn-Pc as a photosensitizer in the photodynamic therapy of tumours. Haematoporphyrin and haematoporphyrin derivative (HpD) are presently used as sensitizers for the specific destruction of tumours by photodynamic therapy (PDT) (Moan, 1986; Spikes & Jori, 1987). Although the technique is being applied for the treatment of a variety of neoplasias at both the experimental and clinical level (Dougherty, 1984), PDT is facing some problems and/or limitations. Thus, HpD as it is prepared from Hp (Lipson et al., 1961) is a complex mixture of porphyrins, whose composition is often not reproduced in different preparations and may change as a function of various experimental parameters (Bonnett et al., 1981; Dougherty, 1983). […] Moreover, PDT is usually performed by irradiation with 620-630 nm light; unfortunately, the molar absorptivity of Hp or HpD in this wavelength range is very low (< 103 M- 1 cm- 1). […] The ability of phthalocyanines and some of their metal derivatives to act as efficient photosensitizers of simple biological substrates (Spikes & Bommer, 1986) and cultured cells (Ben-Hur & Rosenthal, 1985; Chan et al., 1986) has been documented. Finally, Rousseau et al. (1985) have reported that tetra- sulphophthalocyanines (TSPc) can accumulate in a mammary adenocarcinoma in rats. While tetrasulphophthalocyanines are suitable for in vivo studies because of their high water-solubility, serious problems may arise owing to the low degree of purity. Actually, the presently adopted procedures for sulfonation of phthalocyanines lead to mixtures of mono-, di-, tri- and tetra-sulphonated compounds (Linstead & Weiss, 1950; Moser & Thomas, 1983). In general, underivatized phthalocyanines can be obtained with a very high purity and display a good efficiency in the generation of activated oxygen species (Maillard et al., 1980; Wu et al., 1985). […] In this paper, we describe the pharmacokinetic behaviour of liposome-bound Zn- phthalocyanine injected into. BALB/c mice bearing a transplanted fibrosarcoma. Materials and methods Chemicals Zn2 +-phthalocyanine (Zn-Pc) was supplied by Ciba-Geigy (Switzerland) and used without further purification. […] Dipalmitoyl- phosphatidylcholine (DPPC), over 98% pure, was a product of Sigma Chemical Co.; sodium dodecylsulphate (SDS) and Sephacryl S-300 were purchased from Merck and Pharmacia, respectively. […] Pharmacokinetic studies The Zn-Pc was injected- i.p. into tumour-bearing mice after incorporation of the dye into small unilamellar liposomes of DPPC following the procedure described by Valduga et al. (1987): The Zn-Pc/DPPC ratio was 1:36 on a molar basis, as assessed from the weighed amount of phospholipid and absorbance measurements at 680 nm for Zn-Pc (E= 1.68 x 105 M-1 cm- at 673 nm). […]

The subject of data set [4] is serum lipoproteins. Description: Sephacryl S-300 chromatography of mouse serum after Zn-Pc administration. The class given is in vivo, BALB/c mice. Particulars: sera taken between 1 h and 1 week after i.p. administration; second protein peak on Sephacryl S-300. From the text: Br. J. Cancer (1987), 56, 597~~~~~~ ~~-60?TeMcilnPssLd,18 Pharmacokinetic studies with zinc(II)-phthalocyanine in tumour-bearing mice E. Reddi, G. Lo Castro, R. Biolo & G. Jori Department of Biology via Loredan 10, University of Padova, 1-35131 Padova, Italy. Summary Zn(II)-phthalocyanine (Zn-Pc) incorporated into unilamellar liposomes of dipalmitoyl- phosphatidylcholine has been injected intraperitoneally (0.5mgkg-1) to BALB/c mice bearing a transplanted MS-2 fibrosarcoma. […] Several normal tissues take up the drug within 3 hours after administration but release it almost completely after 24-48 hours. […] The results are discussed in terms of a possible use of Zn-Pc as a photosensitizer in the photodynamic therapy of tumours. Haematoporphyrin and haematoporphyrin derivative (HpD) are presently used as sensitizers for the specific destruction of tumours by photodynamic therapy (PDT) (Moan, 1986; Spikes & Jori, 1987). […] Pharmacokinetic studies The Zn-Pc was injected- i.p. into tumour-bearing mice after incorporation of the dye into small unilamellar liposomes of DPPC following the procedure described by Valduga et al. (1987): The Zn-Pc/DPPC ratio was 1:36 on a molar basis, as assessed from the weighed amount of phospholipid and absorbance measurements at 680 nm for Zn-Pc (E= 1.68 x 105 M-1 cm- at 673 nm). […]

The nature of data set [5]: Elimination pathway: analysis of faeces and urine of rats in metabolic cages. The format is in vivo, Wistar albino rats. Particulars: rapid clearance phase.
Data set [6] concerns HDL. Description: In vitro incubation of human serum with Zn-Pc incorporated into DPPC liposomes. The class given is in vitro ADME. Conditions: Reddi et al., unpublished results.
Details of data set [7]: method as in Tralau et al., 1987. Conditions: i.v., ref Tralau et al., 1987, cited from earlier work.

As to `CC1=C(CCC(=O)O)c2cc3[nH]c(cc4nc(cc5[nH]c(cc1n2)c(C)c5C(C)O)C(C)=C4C(C)O)c(C)c3CCC(=O)O` (centres unmarked) [haematoporphyrin], the “fraction of totally eliminated drug recovered in the faeces” value in data set [1] is “at least 98%”.

In the case of `[Zn+2].c1ccc2c(c1)-c1nc-2nc2[n-]c(nc3nc([n-]c4nc(n1)-c1ccccc1-4)-c1ccccc1-3)c1ccccc21` [Zn-Pc, Zn(II)-phthalocyanine], in data set [2], the “serum half-life (fast phase)” value is reported as “approximately 9 hours” and the “time of maximum serum concentration after administration” value was found to be 3 h. For the same molecule, the “fraction of Zn-Pc eliminated from serum in the fast phase” value in data set [2] (biphasic clearance) is reported as “approximately 60%”. Besides, in data set [3] (0.5 mg kg-1 i.p.), the “time of almost complete release from normal tissues” value was 24 to 48 h. The “time of maximum tumour concentration” value in data set [3] (MS-2 fibrosarcoma, 0.5 mg kg-1 i.p. in DPPC liposomes) fell in the range of 18 to 24 h. Besides, in data set [3] (at 18-24 h (24 h) after 0.5 mg kg-1 i.p., muscle = surrounding normal tissue), the “ratio between Zn-Pc levels in tumour and muscle” value is listed as “approximately 7.5”. The “time of uptake by several normal tissues after administration” value in data set [3] (liver, kidneys, spleen, lungs, muscle, 0.5 mg kg-1 i.p.) was not above 3 h. Further, the “skin concentration of Zn-Pc” value in data set [3] (mouse skin, between 1 h and 168 h after administration, 0.5 mg kg-1 i.p.) is recorded as not above 0.1 pug g- I tissue. The “serum protein class transporting the drug” value in data set [4] was “specifically transported by serum lipoproteins; also recorded: specifically associated with the second protein peak”. For the same molecule, in data set [5], the “elimination pathway from serum” value was “almost exclusively via the bile-gut pathway”. Also, the “fraction of drug bound by HDL” value in data set [6] is on record as “at least 70%”.

For tetrasulphophthalocyanines [TSPc], in data set [7] (fibrosarcoma implanted s.c. in the flank), the “time of accumulation in tumour” value is 1 to 3 h. Besides, the “time to complete disappearance from serum” value in data set [7] is not above 3 h.
